Literature values in patent publication US20140256765A1, “TRANSMUCOSAL DRUG DELIVERY SYSTEM” (priority 2013, published 2014).

How the values were obtained:
[1] = at a pH of 6.8
[2] = in vivo

SMILES: CN1CCCC1c1cccnc1 (centres unmarked) [nicotine]
- nicotine in the free base form [1]: about 10%
- time to peak of plasma nicotine levels [2]: about 10 minutes
